The source of these data is US8765908B2, “Compositions for improving bone mass” (The UAB Research Foundation, priority 2010, dated 2014).

Entries after “also recorded” stand apart in the source; their conditions may differ.

The subject of one data set is RYBP. Briefly: Western blot of RYBP expression in retrovirally infected BMMs. Format: cell-based, mouse. The note with it: BMMs infected with retrovirus expressing siRNA; anti-RYBP Western blot. On the procedure: Western blot analysis was performed as previously described (Xu et al., 2006; Liu et al., 2004). RAW264.7 cells cultured in DMEM containing 10% HI-FBS and penicillin/streptomycin were treated with RANKL (100 ng/ml) for various times before being lysed for Western blot analysis with anti-RYBP antibody from Abcam Inc (Cambridge, Mass.). Primary BMMs were normally cultured in α-MEM containing 10% HI-FBS and penicillin/streptomycin in the presence of M-CSF (44 ng/ml). Uninfected BMMs or BMMs infected with retrovirus encoding siRNA and/or tagged-RYBP were cultured in the presence of M-CSF (44 ng/ml) with or without RANKL (100 ng/ml) for various times and then lysed for Western blot analysis. For Western blot analysis of IP complex, all 35 μl of the eluted proteins from each IP assay was loaded for Western blot analysis with anti-HA antibody (Clontech Laboratories, Inc), anti-Myc antibody (Clontech Laboratories, Inc), anti-RYBP (Abcam Inc) antibody and anti-β-actin antibody (Santa Cruz Biotechnology).
293GPG cells were cultured in DMEM with 10% HI-FBS supplemented with tetracycline, puromycin, G418 and penicillin/streptomycin as previously described {2222). Plat-E cells were cultured in DMEM with 10% HI-FBS supplemented with puromycin, blasticidin and penicillin/streptomycin as previously described {Morita, 2000 3155/id}. […]

For a further data set, the system named is primary BMMs. Briefly: In vitro osteoclastogenesis assay (TRAP staining). It is filed as cell-based, mouse. Conditions: TRAP stain. On the procedure:
Primary BMMs were cultured in 24-well tissue culture plates (5×10^4 cells/well) with a-MEM containing 10% heat-inactivated FBS in the presence of 0.02 volume of culture supernatant of M-CSF-producing cells (final M-CSF concentration 44 ng/ml) (Takeshita et al., 2000) and 100 ng of GST-RANKL (Lam et al., 2000). […]
293GPG cells were cultured in DMEM with 10% HI-FBS supplemented with tetracycline, puromycin, G418 and penicillin/streptomycin as previously described {2222). Plat-E cells were cultured in DMEM with 10% HI-FBS supplemented with puromycin, blasticidin and penicillin/streptomycin as previously described {Morita, 2000 3155/id}. The retroviral vectors were transiently transfected into 293GPG cells or Plat-E cells using Lipofectamine Plus Reagent (Invitrogen). Virus supernatant was collected at 48, 72 and 96 h after transfection. Cells were then infected with virus for 24 hours in the presence of M-CSF (220 ng/ml) and 8 μg/ml polybrene. Cells were further cultured in the presence of M-CSF (220 ng/ml) and 2 μg/ml puromycin for selection and expansion of transduced cells. Selected cells were subsequently used for various studies.
A scrambled siRNA sequence was designed to use as control (FIG. 3A). BMMs were uninfected or infected with retrovirus expressing scrambled RNA or RYBP siRNA. […]

The target of data set [1] is T1, 49-aa RANK segment (residues 498-546) containing the IVVY motif (Mus musculus, UniProt O35305).
T1 construct: expressed in transfected cells; host or cells: yeast strain AH109
T1 sequence (O35305 498-546): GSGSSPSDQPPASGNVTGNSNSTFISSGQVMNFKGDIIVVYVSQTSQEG
Briefly: Two-hybrid screen of osteoclast precursor cDNA library. It is filed as binding. The note with it: yeast AH109, medium stringency. An excerpt: An osteoclast precursor cDNA library was constructed using CloneMiner™ cDNA Library Construction System from Invitrogen (Carlsbad, Calif.). Briefly, mRNA was isolated from mouse primary BMMs and used as template for cDNA synthesis. Synthesized cDNA was size fractionated by column chromatography and the desired size of cDNA (>500 bp) was pooled and cloned into pDONOR™222 vector with BP Clonase™ to make Osteoclast Precursor cDNA Entry Library. pGBKT7 AD Vector of MATCHMAKER Two-Hybrid System 3 (Invitrogen) was converted to a Gateway® destination vector using Gateway® Vector Conversion System (Invitrogen). The whole set of cDNA clones was then transferred from the Osteoclast Precursor cDNA Entry Library into the modified pGBKT7 AD Vector to prepare an Osteoclast Precursor Two-Hybrid cDNA Library.
A 49-aa RANK segment (residues 498-546) containing the IVVY (SEQ ID NO: 4) motif (residues 535-538) was used as bait in the two-hybrid screening. A mouse cDNA region encoding this 49-aa RANK fragment was cloned in frame into pGBKT7 DNA-BD Vector of the MATCHMAKER Two-Hybrid System 3 (Invitrogen). The resulting plasmid was named as pGBKT7 DNA-BD-RANK. […]

Consider “RYBP siRNA: retrovirally expressed siRNA targeting the RYBP mRNA region encoding DPPSEA (AGCUUCACUAGGAGGAUCU)”, for which, in the data set with RYBP, the RYBP expression result is recorded as “significantly suppressed RYBP expression; also recorded: dramatically knocked down endogenous RYBP expression”. The osteoclastogenesis entry with primary BMMs (infected BMMs treated with M-CSF (44 ng/ml) and RANKL (100 ng/ml) for 4 days) is “inhibited osteoclastogenesis”.

B1: RYBP-HA: WT RYBP with HA tag at C-terminus, siRNA target region silently mutated (protein, UniProt Q8N488 1-228, looked up)
RING1 and YY1-binding protein: MTMGDKKSPTRPKRQAKPAADEGFWDCSVCTFRNSAEAFKCSICDVRKGTSTRKPRINSQLVAQQVAQQYATPPPPKKEKKEKVEKQDKEKPEKDKEISPSVTKKNTNKKTKPKSDILKDPPSEANSIQSANATTKTSETNHTSRPRLKNVDRSTAQQLAVTVGNVTVIITDFKEKTRSSSTSSSTVTSSAGSEQQNQSSSGSESTDKGSSRSSTPKGDMSAVNDESF
modifications: C-terminal HA tag
notes: WT RYBP with HA tag at C-terminus, siRNA target region silently mutated
For B1, the rescue of osteoclastogenesis entry in the data set on primary BMMs (BMMs co-infected with RYBP siRNA retrovirus, M-CSF and RANKL 4 days) was “effectively rescued osteoclastogenesis”.

B2: RYBP: RING1A and YY1 binding protein, amino acid sequence SEQ ID NO:2 (protein, listed as Mus sp.)
chain: MTMGDKKSPTRPKRQAKPAADEGFWDCSVCTFRNSAEAFKCSICDVRKGTSTRKPRINSQLVAQQVAQQYATPPPPKKEKKEKVEKPDKEKPEKDKDISPSVTKKNTNKKTKPKSDILKDPPSEANSIQSANATTKTSETNHTSRPRLKNVDRSTAQQLAVTVGNVTVIITDFKEKTRSSSTSSSTVTSSAGSEQQNQSSSGSESTDKGSSRSSTPKGDMSAVNDESF
As to B2, the “affinity for the bait (time a clone takes to become blue)” value in data set [1] is “highest affinity for the bait”.
